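Method: 48-hour compound exposure of cells in 96-well plates, five concentrations, linear interpolation of endpoints. GI50 marks 50% less growth.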 Active and inactive are the calls of the source. No stated cut-off is given here; in the data, active = GI50 up to about 1.1 µM and inactive = higher.
How the values were obtained:
Test in all cases: NCI anticancer screen, dose series, 48 h
DU-145 = test system: DU-145
MOLT-4 = test system: MOLT-4
TK-10 = test system: TK-10
SR = test system: SR
SK-MEL-28 = test system: SK-MEL-28
A498 = test system: A498
MDA-N = test system: MDA-N
SK-OV-3 = test system: SK-OV-3
HOP-62 = test system: HOP-62
SW-620 = test system: SW-620
NCI/ADR-RES = test system: NCI/ADR-RES
MDA-MB-231 = test system: MDA-MB-231
CAKI-1 = test system: CAKI-1
RPMI-8226 = test system: RPMI-8226
HL-60 = test system: HL-60
NCI-H226 = test system: NCI-H226
BT-549 = test system: BT-549
Hs-578T = test system: Hs-578T
RXF 393 = test system: RXF 393
SN12C = test system: SN12C
IGROV-1 = test system: IGROV-1
U-251 = test system: U-251
ACHN = test system: ACHN
SNB-19 = test system: SNB-19
SK-MEL-2 = test system: SK-MEL-2
HCT-15 = test system: HCT-15
SF-295 = test system: SF-295
OVCAR-8 = test system: OVCAR-8
OVCAR-5 = test system: OVCAR-5
NCI-H23 = test system: NCI-H23
MCF7 = test system: MCF7
OVCAR-4 = test system: OVCAR-4
HOP-92 = test system: HOP-92
SK-MEL-5 = test system: SK-MEL-5
COLO 205 = test system: COLO 205
LOX IMVI = test system: LOX IMVI
EKVX = test system: EKVX
HT-29 = test system: HT-29
UO-31 = test system: UO-31
OVCAR-3 = test system: OVCAR-3
HCT-116 = test system: HCT-116
A549 = test system: A549
M14 = test system: M14
PC-3 = test system: PC-3
UACC-62 = test system: UACC-62
KM12 = test system: KM12
SF-268 = test system: SF-268
T47D = test system: T47D
K562 = test system: K562
NCI-H522 = test system: NCI-H522
Malme-3M = test system: Malme-3M
786-0 = test system: 786-0
UACC-257 = test system: UACC-257
MDA-MB-435 = test system: MDA-MB-435
CCRF-CEM = test system: CCRF-CEM
NCI-H460 = test system: NCI-H460
SF-539 = test system: SF-539
HCC 2998 = test system: HCC 2998

COC(=O)C(NC(=O)OC(C)(C)C)P(=O)(OC)OC (stereo not given)
GI50 (DU-145): > 100 µM (inactive) | GI50 (MOLT-4): > 100 µM (inactive) | GI50 (TK-10): > 100 µM (inactive) | GI50 (SR): > 100 µM (inactive) | GI50 (SK-MEL-28): > 100 µM (inactive) | GI50 (A498): > 100 µM (inactive) | GI50 (MDA-N): > 100 µM (inactive) | GI50 (SK-OV-3): > 100 µM (inactive) | GI50 (HOP-62): > 100 µM (inactive) | GI50 (SW-620): > 100 µM (inactive) | GI50 (NCI/ADR-RES): > 100 µM (inactive) | GI50 (MDA-MB-231): > 100 µM (inactive) | GI50 (CAKI-1): > 100 µM (inactive) | GI50 (RPMI-8226): > 100 µM (inactive) | GI50 (HL-60): > 100 µM (inactive) | GI50 (NCI-H226): > 100 µM (inactive) | GI50 (BT-549): > 100 µM (inactive) | GI50 (Hs-578T): > 100 µM (inactive) | GI50 (RXF 393): > 100 µM (inactive) | GI50 (SN12C): > 100 µM (inactive) | GI50 (IGROV-1): > 100 µM (inactive) | GI50 (U-251): > 100 µM (inactive) | GI50 (ACHN): > 100 µM (inactive) | GI50 (SNB-19): > 100 µM (inactive) | GI50 (SK-MEL-2): > 100 µM (inactive) | GI50 (HCT-15): > 100 µM | GI50 (SF-295): > 100 µM (inactive) | GI50 (OVCAR-8): > 100 µM (inactive) | GI50 (OVCAR-5): > 100 µM (inactive) | GI50 (NCI-H23): > 100 µM (inactive) | GI50 (MCF7): > 100 µM (inactive) | GI50 (OVCAR-4): > 100 µM (inactive) | GI50 (HOP-92): > 100 µM (inactive) | GI50 (SK-MEL-5): > 100 µM (inactive) | GI50 (COLO 205): > 100 µM (inactive) | GI50 (LOX IMVI): > 100 µM (inactive) | GI50 (EKVX): > 100 µM (inactive) | GI50 (HT-29): > 100 µM (inactive) | GI50 (UO-31): > 100 µM (inactive) | GI50 (OVCAR-3): > 100 µM (inactive) | GI50 (HCT-116): > 100 µM (inactive) | GI50 (A549): > 100 µM (inactive) | GI50 (M14): > 100 µM (inactive) | GI50 (PC-3): > 100 µM (inactive) | GI50 (UACC-62): > 100 µM (inactive) | GI50 (KM12): > 100 µM (inactive) | GI50 (SF-268): > 100 µM (inactive) | GI50 (T47D): > 100 µM (inactive) | GI50 (K562): > 100 µM (inactive) | GI50 (NCI-H522): > 100 µM (inactive) | GI50 (Malme-3M): > 100 µM (inactive) | GI50 (786-0): > 100 µM (inactive) | GI50 (UACC-257): > 100 µM (inactive) | GI50 (MDA-MB-435): > 100 µM (inactive)

COc1ccc2c(c1)c1c(n2CCN2CCOCC2)-c2cccc(OC)c2CC1
GI50 (DU-145): 62.4 µM (inactive) | GI50 (MOLT-4): 23.2 µM (inactive) | GI50 (TK-10): 44.6 µM (inactive) | GI50 (SR): 10 µM (inactive) | GI50 (SK-MEL-28): 54.1 µM (inactive) | GI50 (A498): 26.6 µM (inactive) | GI50 (MDA-N): 33.4 µM (inactive) | GI50 (SK-OV-3): > 100 µM (inactive) | GI50 (HOP-62): 45.6 µM (inactive) | GI50 (SW-620): 36.8 µM (inactive) | GI50 (NCI/ADR-RES): 43.6 µM (inactive) | GI50 (MDA-MB-231): 27.6 µM (inactive) | GI50 (CAKI-1): > 100 µM (inactive) | GI50 (RPMI-8226): 16.9 µM (inactive) | GI50 (NCI-H226): 24.4 µM (inactive) | GI50 (BT-549): 37.2 µM (inactive) | GI50 (Hs-578T): 35 µM (inactive) | GI50 (RXF 393): 24.2 µM (inactive) | GI50 (SN12C): 47.2 µM (inactive) | GI50 (IGROV-1): 43.1 µM (inactive) | GI50 (U-251): 40.1 µM (inactive) | GI50 (ACHN): 37 µM (inactive) | GI50 (CCRF-CEM): 18.7 µM (inactive) | GI50 (SK-MEL-2): 22.3 µM (inactive) | GI50 (HCT-15): 29.5 µM | GI50 (SF-295): 30.7 µM (inactive) | GI50 (OVCAR-8): 46.8 µM (inactive) | GI50 (OVCAR-5): 55.2 µM (inactive) | GI50 (NCI-H23): 52.8 µM (inactive) | GI50 (MCF7): 23.5 µM (inactive) | GI50 (NCI-H460): 38.9 µM (inactive) | GI50 (OVCAR-4): > 100 µM (inactive) | GI50 (HOP-92): 45.8 µM (inactive) | GI50 (SK-MEL-5): 41.6 µM (inactive) | GI50 (COLO 205): 15.2 µM (inactive) | GI50 (HT-29): 17.1 µM (inactive) | GI50 (UO-31): 18.6 µM (inactive) | GI50 (OVCAR-3): 52.7 µM (inactive) | GI50 (HCT-116): 33.7 µM (inactive) | GI50 (A549): 26.2 µM (inactive) | GI50 (M14): 26.5 µM (inactive) | GI50 (PC-3): 23.7 µM (inactive) | GI50 (UACC-62): 29.6 µM (inactive) | GI50 (KM12): 20.4 µM (inactive) | GI50 (SF-268): > 100 µM (inactive) | GI50 (T47D): 59 µM (inactive) | GI50 (K562): 17.3 µM (inactive) | GI50 (NCI-H522): 20.2 µM (inactive) | GI50 (Malme-3M): 16.9 µM (inactive) | GI50 (786-0): 30.4 µM (inactive) | GI50 (UACC-257): 58.5 µM (inactive) | GI50 (SF-539): 33.3 µM (inactive) | GI50 (MDA-MB-435): 44 µM (inactive) | GI50 (HCC 2998): 26.6 µM (inactive)

CCCCOC(=O)Nc1ccc(S(=O)(=O)Nc2c(Cl)cccc2Cl)cc1
GI50 (DU-145): 38.9 µM (inactive) | GI50 (MOLT-4): 24.3 µM (inactive) | GI50 (TK-10): 36.6 µM (inactive) | GI50 (SR): 21.4 µM (inactive) | GI50 (SK-MEL-28): 24.4 µM (inactive) | GI50 (A498): 11.1 µM (inactive) | GI50 (MDA-N): 27.2 µM (inactive) | GI50 (SK-OV-3): 25.2 µM (inactive) | GI50 (HOP-62): 49 µM (inactive) | GI50 (SW-620): 24.4 µM (inactive) | GI50 (NCI/ADR-RES): 24.3 µM (inactive) | GI50 (MDA-MB-231): 25.1 µM (inactive) | GI50 (CAKI-1): 25.6 µM (inactive) | GI50 (RPMI-8226): 17.1 µM (inactive) | GI50 (HL-60): 22.3 µM (inactive) | GI50 (BT-549): 17.7 µM (inactive) | GI50 (Hs-578T): 43 µM (inactive) | GI50 (RXF 393): 36.9 µM (inactive) | GI50 (SN12C): 34.1 µM (inactive) | GI50 (IGROV-1): 30.4 µM (inactive) | GI50 (U-251): 36.1 µM (inactive) | GI50 (ACHN): 30.2 µM (inactive) | GI50 (SNB-19): 39.7 µM (inactive) | GI50 (CCRF-CEM): 33.6 µM (inactive) | GI50 (SK-MEL-2): 26.9 µM (inactive) | GI50 (HCT-15): 26.7 µM | GI50 (SF-295): 32.3 µM (inactive) | GI50 (OVCAR-8): 22.3 µM (inactive) | GI50 (OVCAR-5): 42 µM (inactive) | GI50 (NCI-H23): 40.9 µM (inactive) | GI50 (MCF7): 30.8 µM (inactive) | GI50 (NCI-H460): 31.1 µM (inactive) | GI50 (OVCAR-4): 12.1 µM (inactive) | GI50 (HOP-92): 24.2 µM (inactive) | GI50 (SK-MEL-5): 14.1 µM (inactive) | GI50 (COLO 205): 16.1 µM (inactive) | GI50 (LOX IMVI): 30.1 µM (inactive) | GI50 (EKVX): 26.6 µM (inactive) | GI50 (HT-29): 14.5 µM (inactive) | GI50 (UO-31): 25.6 µM (inactive) | GI50 (OVCAR-3): 26.3 µM (inactive) | GI50 (HCT-116): 26.5 µM (inactive) | GI50 (A549): 37.4 µM (inactive) | GI50 (M14): 43 µM (inactive) | GI50 (PC-3): 43.3 µM (inactive) | GI50 (UACC-62): 21.2 µM (inactive) | GI50 (KM12): 36.1 µM (inactive) | GI50 (SF-268): 36.6 µM (inactive) | GI50 (T47D): 25.7 µM (inactive) | GI50 (K562): 19.6 µM (inactive) | GI50 (NCI-H522): 42.1 µM (inactive) | GI50 (Malme-3M): 26.9 µM (inactive) | GI50 (786-0): 31.3 µM (inactive) | GI50 (UACC-257): 35.6 µM (inactive) | GI50 (SF-539): 29.4 µM (inactive) | GI50 (MDA-MB-435): 26.3 µM (inactive) | GI50 (HCC 2998): 23.9 µM (inactive)

— ChEMBL document CHEMBL1201862, “PubChem BioAssay data set” (2004)
